Reference: publication PMC7600788, “Sequence Permutation Generates Peptides with Different Antimicrobial and Antibiofilm Activities” (Pharmaceuticals, 2020)
No end group written: not given here.

How the values were obtained:
E. coli K12 = format: cell-based, Escherichia coli; details: K12
Protocol: (§1) The antimicrobial activity spectrum of the WW peptide series was performed on a panel of Gram-positive and -negative bacteria using the standard broth micro-dilution method with minor modifications as described. […] There was a small change in the case of Pseudomonas aeruginosa and Acinetobacter baumannii up to two-fold. Four-fold changes were found for Staphylococcus aureus, Staphylococcus epidermidis, Escherichia coli, and Bacillus subtilis. However, we observed over eight-fold MIC changes for Klebsiella pneumoniae and vancomycin-resistant enterococcus (VRE). […] We also observed more than eight-fold changes in minimal bacterial killing concentrations.
(§2) The antibacterial activity of peptides was evaluated using a standard broth microdilution protocol with minor modifications as previously described. In brief, logarithmic phase bacterial cultures (i.e., optical density at 600 nm ≈ 0.5) were diluted to OD600~0.001 and partitioned into a 96-well polystyrene microplate at 90 μL per well. After treatment with 10 μL of peptide solutions two-fold diluted to various concentrations, microplates were incubated at 37 °C overnight and read on a ChroMate 4300 Microplate Reader at 630 nm (GMI, Ramsey, MN). […] Minimal bactericidal concentration (MBC) was determined by plating the clear wells at MIC or above. The peptide concentration that caused no bacterial growth on the petri dish is MBC.

B. subtilis 167 = format: cell-based, Bacillus subtilis; details: 167
Protocol: as §1, §2

[1] = test system: monkey kidney Vero E6 cells; format: cell-based
Protocol: Peptides were assayed for potential in vitro toxicity against human keratinocytes (HaCaT) and THP-1 cells as previously described. THP-1 monocytes were differentiated into macrophages by adding 30 ng/mL of phorbol 12-myristate 13-acetate (PMA; Sigma-Aldrich) to RPMI 1640 supplemented with 10% fetal calf serum culture (FCS) medium for 16 h. Briefly, cells were seeded at a density of 3 × 10^4 per well in a tissue culture 96-well plate in DMEM/RPMI supplemented with 10% fetal bovine serum (FBS), and incubated at 37 °C in a 5% CO2 atmosphere for 24 h. African green monkey kidney Vero E6 cells were cultivated in EMEM in the same manner. Before antimicrobial treatment, wells were replaced with serum free media and treated with peptides at different concentrations for one hour. After incubation, the cells were washed and incubated with 100 μL of DMEM media containing 20 μL of 3-(4,5-dimethylthiazol-2-yl)-5-(3-carboxymethoxyphenyl)-2-(4-sulfophenyl)-2H-tetrazolium (MTS) reagent for two hours at 37 °C. […] Absorbance readings at 492 nm were taken using a ChroMate microplate reader (GMI, Ramsey, MN, USA).

[2] = HPLC retention time measurement (reverse-phase C18); format: physicochemical
Protocol: The retention time of the peptide was measured on a Waters HPLC system equipped with an analytical reverse-phase WATERS C18 column (4.6 × 250 mm). The peptide detected at 220 and 280 nm was eluted with a gradient of acetonitrile (containing 1% TFA) from 5% to 95% at a flow rate of 1 mL/min [22].

E. coli ATCC 25922 = format: cell-based, Escherichia coli; details: ATCC 25922
Protocol: To gain additional insight, we also compared the effects of physiological saline and human serum on the antibacterial activities of WW291-WW298 using both E. coli and S. aureus (Table 3). In our assays, salts and serum were present during the entire course of the experiment. […] Thus, WW295 and WW298 stand out in terms of activity robustness (bold in Table 3).
as §2

S. aureus USA300 LAC [3] = assay: Disruption of 24 h established biofilms (XTT); format: cell-based, Staphylococcus aureus; details: 12.5 µM, highest concentration tested, 24 h treatment
Protocol: We also compared the effects of the peptides on established biofilms (24 h). […] When cells are alive (in the absence of peptide), the cell-permeant calcein-AM dye could enter the cells and gave green color as a consequence of the removal of acetoxymethyl (AM) esters by intracellular esterase (Figure 7A). When the cells were dead due to membrane damage by the peptide, the red dye ethidium homodimer (non-membrane permeable) could enter the cell and become red by binding to nucleic acids (Figure 7B).
The antibiofilm activity of the peptide against 24 h established biofilms was evaluated as previously described. In short, S. aureus USA300 LAC (10^5 CFU/mL) was made from exponential phase bacteria in TSB media and 180 μL were distributed to each well of the microtiter plate (Corning Costar Cat No. 3595, Amsterdam, The Netherlands). The plates were incubated at 37 °C for 24 h to form a biofilm. Culture treated with water served as a positive control while media without bacterial inoculation served as the negative control. Media were then pipetted out and the attached biofilms were washed with 1× PBS to remove the planktonic bacteria. Each well of the plate was then filled with 20 μL of 10× peptide solution and 180 μL of fresh TSB media and the plates were further incubated at 37 °C for 24 h. Media were then pipetted out and the wells were washed with 1× PBS to remove planktonic cells. The live cells in biofilms were estimated by XTT assay as mentioned above.

S. aureus USA300 = format: cell-based, Staphylococcus aureus; details: USA300
Protocol: as §2

S. aureus USA300 LAC [4] = assay: Membrane depolarization, DiBAC4(3); format: cell-based, Staphylococcus aureus; details: 12.5 µM
Protocol: Bacteria surfaces are negative and cationic peptides are able to neutralize the negative charge, thereby reducing membrane potential. To test this possibility, we evaluated the peptides against S. aureus USA300 LAC using a fluorescent indicator dye, the DiBAC4(3) (Figure 5).
The overnight culture of S. aureus USA300 LAC was grown in TSB media to the exponential phase. Cells were then pelleted and washed with PBS twice, and re-suspended in twice the volume of PBS containing 25 mM glucose for 15 min at 37 °C. For membrane depolarization measurements, 250 nM (final concentration) of the dye DiBAC4(3) (bis-(1,3-dibutylbarbituric acid) trimethine oxonol (ANASPEC, Fremont, CA, USA) was added, and vortexed gently. Ninety microliters of the energized bacteria solution were then added in a 96-well microtiter plate (Corning COSTAR). The plate was immediately placed into a FLUOstar Omega (BMG LABTECH Inc., Cary, NC, USA) microplate reader and fluorescence was measured for 20 min. Once the readings are stabilized, 10 μL of peptide solution were added and the fluorescence readings were continued for another 40 min. Measurements were done at an excitation and emission wavelengths of 485 and 520 nm, respectively. Triton X-100 (0.1%) was included as a positive control.

RKIWWWWL [WW295]
Minimal Inhibitory Concentration (MIC), EC (E. coli K12): 6.2 µM
Minimal Inhibitory Concentration (MIC), BS (B. subtilis 167): 12.5 µM
Vero Cells, concentration that caused 50% cell death (LC50) [1]: >100 µM
hydrophobicity implied by retention time (in words) ([2]; reverse-phase HPLC C18): slightly higher hydrophobicity
HPLC (tr, min) ([2]; reverse-phase Waters C18 4.6 × 250 mm, acetonitrile (1% TFA) gradient 5% to 95%, 1 mL/min, detection 220 and 280 nm, taken as measure of hydrophobicity): 12.453 min
MIC, +150 mM NaCl (E. coli ATCC 25922): 6.2 µM
MIC, +10% Human Serum (E. coli ATCC 25922): 12.5 µM
MIC, TSB (E. coli ATCC 25922): 3.1 µM
disruption of established biofilms (24 h) (S. aureus USA300 LAC [3]): did not disrupt MRSA biofilms significantly
MBC, USA300 (S. aureus USA300): 12.5 µM
membrane depolarization (DiBAC4(3) fluorescence) (S. aureus USA300 LAC [4]): less active in depolarizing the membranes
